Laboratory results taken from patent EP1932513A2, “Compounds for improving the visual appearance of the skin” (Henkel AG & Co. KGaA, priority 2006, dated 2008).

Legend:
Dermale Fibroblasten = assay: Protein carbonyls in vitro (ELISA) in UV-A irradiated and non-irradiated fibroblasts; format: cell-based, menschlich; conditions: for durch UV-A-Bestrahlung induzierter Anstieg des Proteincarbonyl-Gehalts: summary in words of the fibroblast results
Experimental: (§1) Dermale Fibroblasten (isoliert aus menschlicher Vorhaut) wurden bei 37°C und 5 Vol.-% CO2 mit Dulbecco's Minimal Essential Medium High Glucose unter Zusatz von 1 Gew.-% Glutamax, 1 Gew.-% Penicillin/Streptomycin und 10 Gew.-% fetalem Kälberserum kultiviert. Zur UV-A Bestrahlung mittels eines Teilkörperbestrahlungshimmels Typ Sellamed 2000 (Dr. Sellmeier; Bestrahlungsspektrum: 340-400 nm, Maximum: 360-380 nm) wurden die Zellen in Petrischalen ausplattiert (ca. 3,8 x 10^4 Zellen/cm^2; zuzüglich 2 Tage Wachstum, danach noch subkonfluent), das Zellmedium abgesaugt, die Zellen einmal mit PBS gewaschen und die UV-A Bestrahlung anschließend in PBS durchgeführt (Dosierung über Zeitintervall bis zu 14min bei […]). Nach UV-A Bestrahlung und Entfernung des PBS wurden die Zellen wieder mit Zellmedium versetzt und bis zur Zellernte bei 37°C, 5 Vol.-% CO2 aufbewahrt. Nach Zelltrypsinierung und -schabung erfolgte unter Zusatz von hypotonem Salzpuffer (10 mM HEPES, 24 mM KCl, 10 mM MgCl2, pH 7,5) und Anwendung der Frier-Tau-Technik die Herstellung des Zelllysats. Nicht lysierte Zellen sowie Membranen und Zellkerne wurden durch zehnminütige Zentrifugation bei 14000 rpm und 4°C abgetrennt.
(§2) Getestete Substanzen: • Natriumascorbylphosphat (0,025 mg/ml), BASF, entsprechend einem Aktivsubstanzgehalt in der Testlösung von 0,0025 Gew.-% • Hypotaurin 0,25 (mg/ml), Siber Hegner (entsprechend einem Aktivsubstanzgehalt in der Testlösung von 0,025 Gew.-%) • Kombuchka (7,5 mg/ml), Sederma (entsprechend einem Aktivsubstanzgehalt in der Testlösung von 0,02 - 0,053 Gew.-%) • Glistin (0,5 mg/ml), Exsymol (entsprechend 4,5 - 5,5' 10^-4 Gew.-% Glutamylamidoethylindol in der Testlösung) • Gingkoselect Phytosome (0,15 mg/ml), Indena (entsprechend 0,9 - 1,8 · 10^-5 Gew.-% […]-Aktivsubstanz in der Testlösung), wird vom Hersteller als Antioxidans ausgelobt.
Fibroblasten wurden für 16 Stunden mit Antioxidantien-haltigem Medium versetzt. Nach UV-A Bestrahlung in PBS wurden die Fibroblasten anschließend wieder für 3 Stunden mit Antioxidantien-haltigem Medium versetzt und lysiert. Die Detektion der Proteincarbonyle erfolgte per ELISA Technik nach Buss et al. mit Veränderungen nach Sitte et al.. Das Zelllysat wurde mit Dinitrophenylhydrazin versetzt, und die gebildeten Hydrazone wurden mit Hilfe des primären Antikörpers Anti-Dinitrophenyl-Rabbit-IgG detektiert. Als sekundärer Antikörper wurde der Anti-Rabbit-IgG-Antikörper (Peroxidase-konjugiert) verwendet und die Menge des gebundenen, sekundären Antikörpers nach Entwicklung mit o-Phenylendiamin und Wasserstoffperoxid detektiert.

Proteasom = assay: Proteasome activity (suc-LLVY-MCA hydrolysis) in lysate of treated fibroblasts; format: cell-based, menschlich
Experimental: as §1, §2
Die Behandlung der Fibroblasten mit Antioxidantien erfolgte wie unter 2.3.3. Das Zelllysat wurde mit einem Puffer, der Tris-HCl (pH=7,8 bei 37°C), KCI, Mg-Acetat, MgCl2 und Dithiothreitol enthält, versetzt. Nach Zugabe von 10µl einer 2mM Stammlösung von suc-LLVY-MCA (N-Succinyl-Leucin-Leucin-Valin-Tyrosin-4-Methyl-cumaryl-7-amid) erfolgte eine 30-minütige Inkubation bei 37°C. Anschließend wurde die Fluoreszenz des Hydrolyseprodukts MCA (4-Methyl-cumaryl-7-amid) am Fluorimeter bestimmt (Anregungswellenlänge: 390 nm, Detektionswellenlänge: 460nm) und die MCA-Konzentration unter Verwendung einer Standardreihe bestimmt.

[1] = bestrahlt (UV-A), unbehandelt bestrahlt = 171,43, test concentrations: Natriumascorbylphosphat 0,025 mg/ml, Hypotaurin 0,25 mg/ml, Kombuchka 7,5 mg/ml, Glistin 0,5 mg/ml, Gingkoselect Phytosome 0,15 mg/ml
[2] = bestrahlt (UV-A), unbehandelt bestrahlt = 23,41, unbehandelt und unbestrahlt = 100 %
[3] = unbestrahlt, unbehandelt = 100 %

Row | Compound | Proteincarbonyl-Gehalt [%, relativ zum unbehandelten und unbestrahlten Zustand] (Dermale Fibroblasten; [1]) | durch UV-A-Bestrahlung induzierter Anstieg des Proteincarbonyl-Gehalts (Dermale Fibroblasten) | Proteincarbonyl-Gehalt [%, relativ zum unbehandelten und unbestrahlten Zustand] (Dermale Fibroblasten; unbestrahlt, unbehandelt = 100) | Proteasomaktivität MW (%) (Proteasom; [2]) | Proteasomaktivität MW (%) (Proteasom; [3])
1 | NCCS(=O)O [Hypotaurin] | 151,3% | reduzieren | 128,32% | 32,9% | 144,37%
2 | NC(CCC(=O)O)C(=O)NCCc1c[nH]c2ccccc12 (stereo not drawn) [Glistin, Glutamylamidoethylindol] | 139,96% | reduzieren | 112,69% | 24,94% | 119,32%
3 | O=C1O[C@H]([C@@H](O)CO)C(O)=C1OP(=O)(O)O [Natriumascorbylphosphat] | 124,18% | reduzieren | 86,82% | 33,36% | 104,74%
